Laboratory results from patent US7776946B2, “Aqueous emulsion polymerization of fluorinated monomers using a fluorinated surfactant” (3M Innovative Properties Company, priority 2005, dated 2010).

Assay: Determination of bio-accumulation: urinary clearance pharmacokinetic study in rats
Type: in vivo, male Sprague Dawley rats
Conditions: 73 micro Moles per kg body weight, oral gavage; for T½ (renal half-life): exponential least squares curve fitting of urine concentration (fluorine NMR); for % Recovery (96 h): parent compound in urine up to 96 h; for Compound-related Effects: clinical signs, gross necropsy at 96 hours post-dose
From the text: Animals we observed throughout the study for clinical signs of toxicity.

| SMILES | T½ (renal half-life) [h] | % Recovery (96 h) [%] | Compound-related Effects |
| --- | --- | --- | --- |
| N.O=C(O)C(F)(F)C(F)(F)OC(F)(F)F [Compound 1, CF3—O—CF2—CF2—COONH4] | 11 | 100 |  |
| N.O=C(O)C(F)(F)C(F)(F)OC(F)(F)C(F)(F)F [Compound 2, C2F5—O—CF2—CF2—COONH4] | 10 | 100 |  |
| N.O=C(O)C(F)(F)C(F)(F)OC(F)(F)C(F)(F)C(F)(F)F [Compound 3, C3F7—O—CF2—CF2—COONH4] | 12 | 82 |  |
| N.O=C(O)C(F)(F)C(F)(F)OC(F)(F)C(F)(F)C(F)(F)C(F)(F)F [Compound 4, C4F9—O—CF2—CF2—COONH4] | 31 | 42 | Hepatomegaly |
| N.O=C(O)C(F)(F)C(F)(F)C(F)(F)C(F)(F)C(F)(F)C(F)(F)C(F)(F)F [Compound C-1, C7F15COONH4, reference compound] | ~550 | 6 | Hepatomegaly |
